Experimental data from patent US6194169A, “Enhanced expression of human platelet-derived growth factor in Pichia pastoris” (The University of Kentucky Research Foundation, priority 1998, dated 2001).

Assays:
[1] = test system: human glioblastoma (U87) cells; test: Tumor growth of stably transfected U87 cells in athymic nude mice; format: in vivo; details: 10^7 transfected U87 cells s.c. in athymic nude mice
Method: Transfections and stable expression in the human glioblastoma cell line U87 were performed using a liposomal reagent (Lipofectin™) (Gibco/BRL; Gaithersburg, Md.), as described. Cells were cultured in 162 cm^2 flasks in complete DMEM. On the day of injection, cells were removed by trypsinization, rinsed twice with Hanks balanced salt solution (HBSS, without phenol red; Gibco/BRL), and resuspended in 300 μL HBSS. Cells (10^7) from exponentially growing cultures of stable U87 transfectants were injected subcutaneously between the scapulae of 9-week-old athymic nude mice (Harlan Sprague-Dawley, nu/nu) using a 1 cc tuberculin syringe equipped with a 23-gauge needle. Two-dimensional measurements of tumors were obtained with vernier calipers.

[2] = PDGF-BB expressed in Saccharomyces cerevisiae, Craig et al. (1992); cited from earlier work
NR6 cells = test: Mitogenesis, [3H]thymidine incorporation in NR6 cells; format: cell-based; details: NR6 cells (primarily α-receptors), ALLFIT fit
Method: (§1) Radioreceptor assays were conducted in A204 and rat mesangial cells (RMC, R52 line) as described previously using 20,000 cpm of [^125 I]PDGF-BB (1200 Ci/mmol; Amersham, Buckinghamshire, England) as radioligand and unlabeled recombinant PDGF-BB proteins as competitor. Mitogenic activities of recombinant PDGF-BB proteins were determined by measuring [^3 H]thymidine incorporation into cells as described.

[3] = Heparin-agarose in vitro batch binding assay; details: 200 mM NaCl, 40 mM Hepes pH 7.4; 3 μg protein; bound fraction by ELISA
Method: Mixtures containing 300 μL of a 50:50 slurry of heparin-agarose in 200 mM NaCl, 40 mM Hepes, pH 7.4 were incubated with 3 μg of PDGF-BB proteins for 15 min at 23° C. Supernatants were obtained by microcentrifugation and collected with a 23 G needle. Pellets were washed with 300 μL of buffer, which was combined with the first supernatant ("unbound" PDGF). Pellets were then washed twice with 150 μL of buffer containing 1 M NaCl, and supernatants were pooled (high salt wash fraction, or "bound" PDGF). PDGF-BB content of bound and unbound fractions were determined by ELISA.

PDGF α-receptor [4] = test: In vitro PDGF receptor autophosphorylation in A204 cells; format: cell-based; details: 170 kDa PDGF receptor species
Method: In vitro assays of PDGF receptor autophosphorylation were conducted essentially as described. […] ATP (3000 Ci/mmol) for 10 min at 30° C. Immunoprecipitates were analyzed by SDS-PAGE (6% polyacrylamide).

PDGF β-receptor [5] = test: Radioreceptor assay (RRA), competition with [125I]PDGF-BB in R52 rat mesangial cells; format: binding; details: R52 cells (β isotype); [125I]PDGF-BB radioligand; Pichia-expressed protein; ALLFIT fit
Method: as §1

PDGF α-receptor [6] = test: Radioreceptor assay (RRA), competition with [125I]PDGF-BB in A204 cells; format: binding; details: A204 cells (α isotype only); [125I]PDGF-BB radioligand; Pichia-expressed protein; ALLFIT fit
Method: as §1

PDGF β-receptor [7] = test: In vitro PDGF receptor autophosphorylation in R52 cells; format: cell-based, rat; details: 170 kDa PDGF receptor species
Method: In vitro assays of PDGF receptor autophosphorylation were conducted essentially as described. A204 and R52 cells (obtained from the American Type Culture Collection (ATCC) were grown to near confluence on 100-mm plastic dishes and maintained in low mitogenicity medium for 24 h. Cells were pre-chilled at 4° C. for 60 min and then incubated with PDGF-BB preparations for 10 min at 4° C. Cell lysates were incubated with either anti-PDGFRα or anti-PDGFRβ IgG (Santa Cruz Biotechnologies) for 60 min at 4° C., centrifuged for 10 min and incubated in fresh tubes containing protein A-agarose (Sigma) for 60 min at 4° C. Kinase assays were performed in 25 μL kinase buffer (20 mM Tris HCl, 1 mM DTT, 10 mM MnCl2, pH 7.5) and 5 μCi [γ-^32 P] ATP (3000 Ci/mmol) for 10 min at 30° C. Immunoprecipitates were analyzed by SDS-PAGE (6% polyacrylamide).

A-WT-RKK: wild-type PDGF A-chain overexpressed from cDNA in stably transfected U87 cells
effect of overexpression on U87 tumor growth in vivo vs Neo controls (in words) [1]: not significantly different

PDGF-BB: wild-type human PDGF-BB expressed in Saccharomyces cerevisiae, CD data as reported by Craig et al. (1992)
Structure (%) Beta [2]: 51.0%
Structure (%) Helix [2]: 4.0%
Structure (%) Random [2]: 45.0%

WT-RKK: human PDGF B-chain (PDGF-BB homodimer) with wild-type loop III residues Arg Lys Lys (RKK)
Mitogenesis ED50 (NR6 cells): 52 ng/mL
heparin-binding, protein in the bound fraction [3]: ~100%
effect of overexpression on U87 tumor growth in vivo vs Neo controls (in words) [1]: not significantly different
induction of α-receptor autophosphorylation (in words) (PDGF α-receptor [4]): dose-dependent autophosphorylation
RRA: IC50 β (PDGF β-receptor [5]): 4.0 ng/mL
RRA: IC50 α (PDGF α-receptor [6]): 9.2 ng/mL
induction of β-receptor autophosphorylation (in words) (PDGF β-receptor [7]): dose-dependent autophosphorylation
